Laboratory results as given in the supplement of paper PMC6045584.
± gives the standard deviation of the averaged measurements.

Columns and labels:
ERLOTINIB = compound: C#Cc1cccc(Nc2ncnc3cc(OCCOC)c(OCCOC)cc23)c1 [ERLOTINIB]; assay: surviving fraction relative to DMSO-only wells; higher = less growth inhibition; conditions: exposure time: 5 days
Summary of the method: (§1)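 For each tumour cell line, log-phase cells were put into 384-well plates at 250–500 cells per well, then after 24 hours exposed continuously for five days to inhibitors at 0.5, 1, 5, 10, 50, 100, 500 and 1000 nM. Viability was assessed by CellTiter-Glo luminescence, with surviving fraction expressed relative to the median of DMSO-only wells. Lines were screened three times and retained only if replicate Pearson r exceeded 0.7 and median Z' exceeded 0.3.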

METHOTREXATE = compound: CN(Cc1cnc2nc(N)nc(N)c2n1)c1ccc(C(=O)N[C@@H](CCC(=O)O)C(=O)O)cc1 [METHOTREXATE]; assay: as above; conditions: exposure time: 5 days
Summary of the method: as §1

Row | Test System | surviving fraction (ERLOTINIB; 0.5 nM) | surviving fraction (ERLOTINIB; 1 nM) | surviving fraction (ERLOTINIB; 5 nM) | surviving fraction (ERLOTINIB; 10 nM) | surviving fraction (ERLOTINIB; 50 nM) | surviving fraction (ERLOTINIB; 100 nM) | surviving fraction (ERLOTINIB; 500 nM) | surviving fraction (ERLOTINIB; 1000 nM) | surviving fraction (METHOTREXATE; 0.5 nM) | surviving fraction (METHOTREXATE; 1 nM) | surviving fraction (METHOTREXATE; 5 nM) | surviving fraction (METHOTREXATE; 10 nM) | surviving fraction (METHOTREXATE; 50 nM) | surviving fraction (METHOTREXATE; 100 nM) | surviving fraction (METHOTREXATE; 500 nM) | surviving fraction (METHOTREXATE; 1000 nM)
1 | HU09 BONE | 1.08 ± 0.11 | 0.986 ± 0.073 | 1.12 ± 0.073 | 1.04 ± 0.1 | 1.11 ± 0.029 | 1.1 ± 0.024 | 1.04 ± 0.061 | 0.965 ± 0.062 | 1.07 ± 0.17 | 1 ± 0.055 | 1.15 ± 0.085 | 1.06 ± 0.059 | 0.589 ± 0.031 | 0.459 ± 0.051 | 0.335 ± 0.018 | 0.337 ± 0.043
2 | JIMT1 BREAST | 1 ± 0.012 | 0.994 ± 0.044 | – | 0.9948 ± 0.0084 | 1 ± 0.015 | 1.02 ± 0.076 | 0.809 ± 0.025 | 0.731 ± 0.031 | 1.02 ± 0.053 | 0.999 ± 0.026 | 0.579 ± 0.035 | 0.533 ± 0.044 | 0.305 ± 0.028 | 0.286 ± 0.029 | 0.285 ± 0.042 | 0.295 ± 0.017
3 | JURKAT HAEMATOPOIETIC AND LYMPHOID TISSUE | 1.05 ± 0.025 | – | 1.05 ± 0.037 | 1.03 ± 0.041 | 0.989 ± 0.035 | 1.01 ± 0.015 | 0.988 ± 0.015 | 1.01 ± 0.038 | 1.02 ± 0.012 | 1.02 ± 0.035 | 1.02 ± 0.03 | 0.404 ± 0.012 | 0.036 ± 0.001 | 0.0293 ± 0.0015 | 0.0293 ± 0.00058 | 0.031
4 | KPD BONE | 1.07 ± 0.11 | 1.03 ± 0.042 | 1.06 ± 0.076 | 1.07 ± 0.075 | 1.18 ± 0.035 | 1.11 ± 0.035 | 1.07 ± 0.11 | 1.05 ± 0.096 | 1.06 ± 0.061 | 1.02 ± 0.043 | 1.12 ± 0.035 | 1.09 ± 0.076 | 1.08 ± 0.087 | 1.17 ± 0.021 | 1.02 ± 0.024 | 1.05 ± 0.047
5 | LM7 BONE | 1.09 ± 0.1 | 0.989 ± 0.043 | 1.2 ± 0.043 | 1.06 ± 0.051 | 1.23 ± 0.061 | 1.15 ± 0.098 | 0.932 ± 0.058 | – | 1.061 ± 0.0066 | 0.974 ± 0.085 | 1.13 ± 0.015 | 1.17 ± 0.06 | 0.919 ± 0.033 | 0.885 ± 0.065 | 0.699 ± 0.042 | 0.64 ± 0.023
6 | MCF7 BREAST | 0.942 ± 0.022 | 0.9629 ± 0.007 | 0.993 ± 0.044 | 0.953 ± 0.053 | 1.084 ± 0.0061 | 1.03 ± 0.018 | 1.03 ± 0.042 | – | 0.973 ± 0.011 | 0.989 ± 0.05 | 0.734 ± 0.048 | 0.587 ± 0.033 | 0.569 ± 0.011 | 0.588 ± 0.035 | 0.573 ± 0.039 | 0.572 ± 0.024
7 | MDAMB134 BREAST | – | 0.92 ± 0.024 | 0.899 ± 0.018 | 0.91 ± 0.059 | 1.13 ± 0.033 | 1.15 ± 0.17 | – | 1.08 ± 0.088 | 0.929 ± 0.039 | 0.947 ± 0.04 | 0.899 ± 0.052 | 0.848 ± 0.027 | 1.12 ± 0.21 | 0.858 ± 0.073 | 0.75 ± 0.06 | 0.75 ± 0.011
8 | MDAMB157 BREAST | 0.981 ± 0.071 | 0.985 ± 0.11 | – | 0.998 ± 0.056 | 0.97 ± 0.091 | 1.04 ± 0.018 | 0.999 ± 0.073 | – | 1.02 ± 0.12 | 0.908 ± 0.012 | 1.05 ± 0.023 | 1.02 ± 0.09 | 0.946 ± 0.01 | 0.947 ± 0.06 | 0.839 ± 0.044 | 0.857 ± 0.076
9 | MDAMB231 BREAST | 1.01 ± 0.028 | 0.997 ± 0.013 | 1.02 ± 0.019 | 1.02 ± 0.011 | 1.04 ± 0.019 | 1.06 ± 0.027 | 1.06 ± 0.028 | 1.03 ± 0.029 | 0.982 ± 0.023 | 0.967 ± 0.02 | 0.988 ± 0.026 | 0.986 ± 0.026 | 1.02 ± 0.02 | 1.01 ± 0.044 | 0.811 ± 0.017 | 0.509 ± 0.015
10 | MDAMB361 BREAST | 0.873 ± 0.095 | 0.849 ± 0.05 | 0.83 ± 0.037 | 0.869 ± 0.011 | – | – | 0.913 ± 0.091 | 0.827 ± 0.033 | 0.85 ± 0.13 | 0.853 ± 0.073 | 0.8 ± 0.015 | 0.889 ± 0.062 | 0.947 ± 0.082 | 0.879 ± 0.037 | 0.74 ± 0.045 | 0.735 ± 0.075
11 | MDAMB436 BREAST | 0.987 ± 0.03 | 1.08 ± 0.073 | 1.07 ± 0.091 | 1.05 ± 0.15 | 1.05 ± 0.14 | 0.941 ± 0.049 | 0.932 ± 0.066 | 0.811 ± 0.045 | 0.955 ± 0.13 | 0.977 ± 0.091 | 0.963 ± 0.12 | 0.857 ± 0.024 | 0.677 ± 0.096 | 0.609 ± 0.057 | 0.65 ± 0.14 | 0.687 ± 0.083
